{
  "source": "patent US20050021241A1",
  "about": "“Gain of function sorting for drug discovery and development” (priority 2003, published 2005)",
  "key": {"[1]": {"target": "T1, S3.36 A variant of the 5HT2 A receptor (Homo sapiens, UniProt P28223, S159A)", "T1 construct": "expressed in transfected cells", "T1 sequence (P28223 whole entry S159A)": "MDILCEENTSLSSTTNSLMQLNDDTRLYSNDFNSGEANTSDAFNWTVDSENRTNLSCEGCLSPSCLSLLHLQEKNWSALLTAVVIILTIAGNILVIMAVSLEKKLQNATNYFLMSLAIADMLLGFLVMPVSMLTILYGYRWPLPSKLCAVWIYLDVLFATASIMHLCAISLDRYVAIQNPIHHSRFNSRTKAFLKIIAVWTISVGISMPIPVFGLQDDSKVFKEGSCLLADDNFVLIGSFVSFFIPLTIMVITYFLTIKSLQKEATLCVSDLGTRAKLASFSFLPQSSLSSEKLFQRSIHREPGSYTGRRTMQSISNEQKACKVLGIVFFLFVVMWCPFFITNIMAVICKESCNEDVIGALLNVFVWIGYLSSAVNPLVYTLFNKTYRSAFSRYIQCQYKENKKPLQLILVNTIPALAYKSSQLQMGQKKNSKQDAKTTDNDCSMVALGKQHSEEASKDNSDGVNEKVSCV", "assay": "Ca2+i mobilization response (Indo-1, flow cytometry) of cells expressing variant serotonin receptor", "assay_type": "cell-based", "source_text": "Step 1: To observe GOF behavior it is necessary to understand the range of compound concentration that activates the wild type receptor (WT). GOF variants will respond to concentrations of the test compound at least 5 fold lower than the minimal concentration that activates the WT. An illustration is shown in FIG. 18 where a dose-response curve for one null function mutant receptor (NF), the serotonin 2 A receptor (5 HT2 A) mutant 5.46, and the WT are shown in the lower graph. The two curves are virtually identical. […] At very low concentrations, only the GOF 3.36 mutant bearing cells are isolated, and the WT and NF 5.46 mutant are only selected as the compound concentration is raised to relatively high concentrations. It will also be necessary to understand the time kinetics of the WT response so that an appropriate time window (TW) region of the response can be selected for the analysis and sort.\nFIG. 18 illustrates the results obtained during steps of GOF sorting of variant Human Serotonin Receptor Type 2A populations. Three populations of cells containing one of three versions of the human serotonin receptor type 2A were stained three distinct “colors” recognizable by the FACS. The populations were combined in equal proportions into one population. One mutant is the S3.36 A, the other mutant is the S5.46 A mutant and the third group is the wild type receptor (WT). The cells were also loaded with the Ca^2+i indicator dye, indol, so that receptor-mediated signaling events could be monitored through the Ca^2+i mobilization response. The combined population was stimulated with increasing concentrations of the test compound, naphthyl piperazine, and the percentage of cells within each colored subpopulation showing a threshold Ca^2+i response was quantified. […] The sorted cells were then re-analyzed to evaluate the subpopulation from which they were derived, based on the distinct “color” used to stain each subpopulation. The identity of the sorted populations that were taken from sorting at several different compound concentrations is shown in the bottom half of the figure. […] At the high and low ends of the concentration range there was no selective responsiveness by the S3.36 A variant cells, and the FACS selected each of the populations equally.\nGOF sorting enhances drug discovery by providing the ability to identify in a few months the Gain of Function (GOF) receptor variants that normally took years to identify. It was hypothesized that GOF variants could be isolated efficiently from a pool of cells, each expressing a single variant, by sorting responding cells at low concentrations of agonist, using Fluorescence Activated Cell Sorting (FACS). […]"}, "[2]": {"system": "5 HT2 A receptor cell lines", "assay": "FACS sorting of responding cells from a mixture of three color-coded 5 HT2 A receptor cell lines (WT, S3.36 A, S5.46 A)", "assay_type": "cell-based, human", "source_text": "FIG. 18 illustrates the results obtained during steps of GOF sorting of variant Human Serotonin Receptor Type 2A populations. Three populations of cells containing one of three versions of the human serotonin receptor type 2A were stained three distinct “colors” recognizable by the FACS. The populations were combined in equal proportions into one population. One mutant is the S3.36 A, the other mutant is the S5.46 A mutant and the third group is the wild type receptor (WT). The cells were also loaded with the Ca^2+i indicator dye, indol, so that receptor-mediated signaling events could be monitored through the Ca^2+i mobilization response. The combined population was stimulated with increasing concentrations of the test compound, naphthyl piperazine, and the percentage of cells within each colored subpopulation showing a threshold Ca^2+i response was quantified. […] The sorted cells were then re-analyzed to evaluate the subpopulation from which they were derived, based on the distinct “color” used to stain each subpopulation. The identity of the sorted populations that were taken from sorting at several different compound concentrations is shown in the bottom half of the figure. […] At the high and low ends of the concentration range there was no selective responsiveness by the S3.36 A variant cells, and the FACS selected each of the populations equally. […]"}},
  "data": [
    {"molecule": "c1ccc2c(N3CCNCC3)cccc2c1", "note": "[Naphthyl Piperazine]", "values": [
      {"measurement": "agonist concentration at which cells expressing the S3.36 A variant were becoming activated", "setting": "[1]; WT and S5.46 A variant not activated at this concentration", "result": 3, "unit": "nM"},
      {"measurement": "fold lower EC50 of S3.36 A variant than the wild type or the S5.46 A variant", "setting": "[1]; agonist dose-response, S3.36 A vs wild type or S5.46 A 5HT2 A receptor", "result": "1,000 fold"},
      {"measurement": "minimum concentration that activates the 3.36 mutant cells, fold lower than that required to activate the WT", "setting": "[1]; mutant 3.36 vs WT, dose-response curve FIG. 18", "result": "more than 100 fold"},
      {"measurement": "affinity of S3.36 A variant for the compound compared with S5.46 A and WT", "setting": "[1]; percentage of cells showing a threshold Ca2+i response, increasing concentrations", "result": "greater affinity"},
      {"measurement": "share of GOF S3.36 A variant in the sorted population", "setting": "[2]; 50-100 nM agonist concentration range", "result": 90, "unit": "%"},
      {"measurement": "agonist concentration range of selective sorting of GOF variant S3.36 A from wild type and S5.46 A", "setting": "[2]; FACS sort of responding cells, mixed pool of 3 cell lines", "result": "10 to 300", "unit": "nM"}
    ]}
  ]
}
